Laboratory results as given in ChEMBL document CHEMBL4706603, “Discovery of VEGFR-2 inhibitors exerting significant anticancer activity against CD44+ and CD133+ cancer stem cells (CSCs): Reversal of TGF-β induced epithelial-mesenchymal transition (EMT) in hepatocellular carcinoma” (Eur J Med Chem, 2020).
The source made the active and inactive calls. The calls are words filed in the database; no cut-off is given here.

Legend:
[1] = test system: HepG2; experiment: Induction of mitochondrial membrane potential disruption in human HepG2 cells assessed as green fluorescence at IC50 incubated for 24 hrs by JC-10 staining based fluorescence assay; type: functional, cell-based
[2] = test system: MDA-MB-231; experiment: Induction of apoptosis in human MDA-MB-231 cells assessed as early apoptotic cells at IC50 incubated for 72 hrs by Alexa Fluor488-annexin V/PI staining based flow cytometric analysis (Rvb= 0.6 %); type: functional
[3] = Toxicity in Wistar rat assessed as mortality of organism at 5 to 2000 mg/kg, po and observed for 14 days; type: organism-based; details: in vivo, 336 h, dose 5-2000 mg/kg, time 14 day
[4] = Toxicity in female Wistar rat assessed as apathy occurence at 2000 mg/kg, po observed for 48 hrs; type: organism-based; details: in vivo
[5] = test system: HepG2; experiment: Induction of apoptosis in human HepG2 cells assessed as apoptotic index at IC50 incubated for 24 hrs by EtBr/AO staining based fluorescence microscopic analysis (reference value: 1.99 %); type: functional
[6] = test system: MDA-MB-231; experiment: Cytotoxicity against human MDA-MB-231 cells assessed as reduction in cell viability incubated for 24 hrs by MTT assay; type: functional, cell-based
[7] = Toxicity in Wistar rat assessed as effect on relative weight of kidney at 5 to 2000 mg/kg, po and measured on day 15; type: organism-based; details: in vivo, 360 h, dose 5-2000 mg/kg, time 15 day
[8] = Toxicity in female Wistar rat assessed as periodic body stretching at 2000 mg/kg, po observed for 48 hrs; type: organism-based; details: in vivo
[9] = Inhibition of VEGFR2 expression in human HUVEC assessed as mean fluorescence intensity at IC50 incubated for 48 hrs by FITC based flow cytometry analysis (reference value: 49.24 +/- 0.47); type: functional
[10] = test system: MCF7; experiment: Antimigratory activity against human MCF7 cells assessed as wound healing at IC50 incubated for 24 hrs by inverted microscopic analysis (reference value: 27.64 %); type: functional
[11] = Toxicity in Wistar rat assessed as normal splenic tissue with normal red and white pulp with lymphoid cellular population at 2000 mg/kg, po and measured on day 15 by microscopic analysis; type: organism-based; details: in vivo, 360 h, time 15 day
[12] = Toxicity in Wistar rat assessed as effect on hematological parameters at 5 to 2000 mg/kg, po and measured on day 15; type: organism-based; details: in vivo, 360 h, dose 5-2000 mg/kg, time 15 day
[13] = AUC (0 to 72 hrs) in Wistar rat at 5 mg/kg, po measured upto 72 hrs by HPLC-MS analysis; type: ADME, organism-based; design: route oral, dose 5 mg/kg, time <=72; details: in vivo
[14] = Toxicity in Wistar rat assessed as body weight loss at 2000 mg/kg, po and observed for 1 week; type: organism-based; details: in vivo, 168 h, time 1 weeks
[15] = test system: MDA-MB-231; experiment: Induction of apoptosis in human MDA-MB-231 cells assessed as viable cells at IC50 incubated for 72 hrs by Alexa Fluor488-annexin V/PI staining based flow cytometric analysis (Rvb= 99.4 %); type: functional
[16] = Toxicity in po dosed Wistar rat; type: organism-based; details: in vivo
[17] = test system: HepG2; experiment: Induction of apoptosis in human HepG2 cells assessed as blebbing of nucleus by measuring orange coloured fluorescence at IC50 incubated for 24 hrs by EtBr/AO staining based fluorescence microscopic analysis; type: functional, cell-based
[18] = Toxicity in Wistar rat assessed as effect on relative weight of spleen at 5 to 2000 mg/kg, po and measured on day 15; type: organism-based; details: in vivo, 360 h, dose 5-2000 mg/kg, time 15 day
[19] = Toxicity in Wistar rat assessed as normal ovary with primary to tertiary developing follicles and mature follicles at 2000 mg/kg, po and measured on day 15 by microscopic analysis; type: organism-based; details: in vivo, 360 h, time 15 day
[20] = Tmax in Wistar rat at 5 mg/kg, po measured upto 72 hrs by HPLC-MS analysis; type: ADME, organism-based; details: in vivo
[21] = Toxicity in Wistar rat assessed as toxic signs at 5 to 300 mg/kg, po and observed for 14 days; type: organism-based; details: in vivo, 336 h, dose 5-300 mg/kg, time 14 day
[22] = Toxicity in female Wistar rat assessed as roughened fur at 2000 mg/kg, po observed for 48 hrs; type: organism-based; details: in vivo
[23] = Toxicity in Wistar rat assessed as effect on relative weight of heart at 5 to 2000 mg/kg, po and measured on day 15; type: organism-based; details: in vivo, 360 h, dose 5-2000 mg/kg, time 15 day
[24] = test system: MDA-MB-231; experiment: Induction of apoptosis in human MDA-MB-231 cells assessed as necrotic cells at IC50 incubated for 72 hrs by Alexa Fluor488-annexin V/PI staining based flow cytometric analysis (Rvb= 0.0 %); type: functional
[25] = test system: HepG2; experiment: Inhibition of epithelial-mesenchymal transition in TGF-beta-induced human HepG2 cells assessed as SNAIL expression at IC50 incubated for 48 hrs by flow cytometry analysis (reference value: 97.78 %); type: functional; design: scale not given: the % may be the effect or the level left
[26] = test system: HepG2; experiment: Induction of DNA damage in human HepG2 cells assessed as increase in length of comet tail with decrease in nuclear DNA content with complete DNA damage at IC50 incubated for 24 hrs by Comet assay; type: functional, cell-based
[27] = Toxicity in Wistar rat assessed as effect on SGOT level at 5 to 2000 mg/kg, po and measured on day 15; type: organism-based; details: in vivo, 360 h, dose 5-2000 mg/kg, time 15 day
[28] = Toxicity in Wistar rat assessed as effect on water consumption at 5 to 2000 mg/kg, po and observed for 14 days; type: organism-based; details: in vivo, 336 h, dose 5-2000 mg/kg, time 14 day
[29] = test system: HepG2; experiment: Antimigratory activity against human HepG2 cells assessed as reduction in cell migration at IC50 incubated for 24 hrs by transwell migration assay; type: functional, cell-based
[30] = test system: HUVEC; experiment: Induction of apoptosis in human HUVEC assessed as late apoptotic cells at IC50 incubated for 48 hrs by annexin V-FITC and PI staining based flow cytometry; type: functional
[31] = Toxicity in Wistar rat assessed as normal cardiac muscles and cardiac fibers with intact length without inflammatory changes at 2000 mg/kg, po and measured on day 15 by microscopic analysis; type: organism-based; details: in vivo, 360 h, time 15 day
[32] = AUMC (0 to infinity) in Wistar rat at 5 mg/kg, po by HPLC-MS analysis; type: ADME, organism-based; details: in vivo
[33] = test system: HepG2; experiment: Induction of apoptosis in human HepG2 cells assessed as shrinkage of nucleus by measuring orange coloured fluorescence at IC50 incubated for 24 hrs by EtBr/AO staining based fluorescence microscopic analysis; type: functional, cell-based
[34] = Toxicity in female Wistar rat assessed as difficult to breathe at 2000 mg/kg, po observed for 48 hrs; type: organism-based; details: in vivo
[35] = MRT in Wistar rat at 5 mg/kg, po measured upto 72 hrs by HPLC-MS analysis; type: ADME, organism-based; details: in vivo
[36] = Toxicity in Wistar rat assessed as effect on ALP level in serum at 5 to 2000 mg/kg, po and measured on day 15; type: organism-based; details: in vivo, 360 h, dose 5-2000 mg/kg, time 15 day
[37] = test system: HepG2; experiment: Inhibition of epithelial-mesenchymal transition in TGF-beta-induced human HepG2 cells assessed as vimentin expression at IC50 incubated for 48 hrs by flow cytometry analysis (reference value: 98.19 %); type: functional; design: scale not given: the % may be the effect or the level left
[38] = test system: HepG2; experiment: Induction of ROS production in human HepG2 cells at IC50 incubated for 3 hrs by fluorescence microscopic analysis; type: functional, cell-based
[39] = test system: HepG2; experiment: Cytotoxicity against human HepG2 cells assessed as reduction in cell viability incubated for 24 hrs by MTT assay; type: functional, cell-based
[40] = Toxicity in Wistar rat assessed as effect on body weight at 5 to 300 mg/kg, po and observed for 14 days; type: organism-based; details: in vivo, 336 h, dose 5-300 mg/kg, time 14 day

CC(=O)Nc1ccc(Oc2cccc3c(NC(=O)Nc4cccc(C(F)(F)F)c4)cccc23)cc1
Activity [1]: Active
Activity [2]: 68.2%
Activity [3]: Non-Toxic
Activity [4]: Toxic
Activity [5]: 86.66%
inhibition [6]: Dose-dependent effect
IC50 ([6]; MDA-MB-231, 24 h): 1410 nM
Activity [7]: Non-Toxic
Activity [8]: Toxic
Flu intensity [9]: 18.41
Activity [10]: 3.02%
Activity [11]: Non-Toxic
Activity [12]: Non-Toxic
AUC(0-t) [13]: 621 µg·h/mL
Activity [14]: Toxic
Activity [15]: 27.3%
LD50 [16]: > 2000 mg/kg
Activity [17]: Active
Activity [18]: Non-Toxic
Activity [19]: Non-Toxic
Tmax [20]: 6 h
Activity [21]: Non-Toxic
Activity [22]: Toxic
Activity [23]: Non-Toxic
Activity [24]: 0.3%
Activity [25]: 10.26%
Activity [26]: Active
Activity [27]: Non-Toxic
Activity [28]: Non-Toxic
Activity [29]: Active
Activity [30]: 6.09%
Activity [31]: Non-Toxic
AUMC [32]: 8929.284 ug/ml.hr^2
Activity [33]: Active
Activity [34]: Toxic
MRT [35]: 14.3 h
Activity [36]: Non-Toxic
Activity [37]: 20.44%
Activity [38]: Active
inhibition [39]: Dose-dependent effect
IC50 ([39]; HepG2, 24 h): 258 nM
Activity [40]: Non-Toxic
